Test results: patent US7964624B1, “Inhibitors of serine proteases” (priority 2005, dated 2011)

Molecular target: T1, full-length hepatitis C viral protein NS3•4A (Hepatitis C virus genotype 1a, UniProt P27958)
T1 construct: hexa-histidine (N); made in house; host or cells: Sf9 insect cells (baculovirus, pVL1392)
Test: biochemical
Parameters: species or system HCV sub-type strain 1a
Conditions: Enzyme Assay 2 (HCV NS3 Peptide Cleavage Assay) activity, apparent Ki class

Compound | Ki [nM]
CCC[C@H](NC(=O)[C@@H]1C[C@]2(CC(c3cccc4cccnc34)=NO2)CN1C(=O)[C@@H](NC(=O)CC1CCCCCC1)C(C)(C)C)C(=O)C(=O)NC1CC1 [Compound 595] | < 100
CCC[C@H](NC(=O)[C@@H]1C[C@]2(CC(c3cccc4cccnc34)=NO2)CN1C(=O)[C@@H](NC(=O)CC1CCCCCC1)C(C)(C)C)C(=O)C(=O)NC [Compound 596] | 100 to 500
CCC[C@H](NC(=O)[C@@H]1C[C@]2(CC(c3ccc(N(C)C)c(Cl)c3)=NO2)CN1C(=O)[C@@H](NC(=O)CC1CCCCC1)C(C)(C)C)C(=O)C(=O)NC1CC1 [Compound 597] | 100 to 500
CCC[C@H](NC(=O)[C@@H]1C[C@]2(CC(c3cccc(NC(=O)C(Cl)Cl)c3)=NO2)CN1C(=O)[C@@H](NC(=O)CC1CCCCC1)C(C)(C)C)C(=O)C(=O)NC1CC1 [Compound 598] | 100 to 500
CCC[C@H](NC(=O)[C@@H]1C[C@@]2(CC(c3cc(Cl)c4c(c3)CCCN4C)=NO2)CN1C(=O)[C@@H](NC(=O)OC(C)(C)C)C(C)(C)C)C(=O)C(=O)NC1CC1 [Compound 600] | 100 to 500
CCC[C@H](NC(=O)[C@@H]1C[C@]2(CC(c3cc(Cl)c4c(c3)CCCN4C)=NO2)CN1C(=O)[C@@H](NC(=O)OC(C)(C)C)C(C)(C)C)C(=O)C(=O)NC1CC1 [Compound 601] | < 100
CC(C)(C)[C@H](NC(=O)CC1CCCCCC1)C(=O)N1C[C@@]2(CC(c3cccc4cccnc34)=NO2)C[C@H]1C(=O)N[C@@H](CC1CC1)C(=O)C(N)=O [Compound 602] | < 100
CC(C)(C)[C@H](NC(=O)CC1CCCCC1)C(=O)N1C[C@@]2(CC(c3cccc4cccnc34)=NO2)C[C@H]1C(=O)N[C@@H](CC1CC1)C(=O)C(N)=O [Compound 603] | < 100
CCC[C@H](NC(=O)[C@@H]1C[C@]2(CC(c3cc(Cl)c(OC)cc3C)=NO2)CN1C(=O)[C@@H](NC(=O)CC1CCCCC1)C(C)(C)C)C(=O)C(=O)NC [Compound 604] | 100 to 500
CCC[C@H](NC(=O)[C@@H]1C[C@]2(CC(c3cc(Cl)c(OC)cc3C)=NO2)CN1C(=O)[C@@H](NC(=O)CC1CCCCCC1)C(C)(C)C)C(=O)C(=O)NC1CC1 [Compound 606] | 100 to 500
CCC[C@H](NC(=O)[C@@H]1C[C@]2(CC(c3cc(Cl)c(OC)cc3C)=NO2)CN1C(=O)[C@@H](NC(=O)CC(C)(C)C)C(C)(C)C)C(=O)C(=O)NC [Compound 607] | 100 to 500
CCC[C@H](NC(=O)[C@@H]1C[C@]2(CC(c3cc(Cl)c(OC)cc3C)=NO2)CN1C(=O)[C@@H](NC(=O)CC(C)(C)C)C(C)(C)C)C(=O)C(=O)NC1CC1 [Compound 608] | 100 to 500
CCC[C@H](NC(=O)[C@@H]1C[C@]2(CC(c3ccc(F)c(Cl)c3)=NO2)CN1C(=O)[C@@H](NC(=O)CC1CCCCC1)C(C)(C)C)C(=O)C(=O)NC [Compound 609] | < 100
CCC[C@H](NC(=O)[C@@H]1C[C@]2(CC(c3ccc(F)c(Cl)c3)=NO2)CN1C(=O)[C@@H](NC(=O)CC1CCCCCC1)C(C)(C)C)C(=O)C(=O)NC [Compound 610] | < 100
CCC[C@H](NC(=O)[C@@H]1C[C@]2(CC(c3ccc(F)c(Cl)c3)=NO2)CN1C(=O)[C@@H](NC(=O)CC1CCCCCC1)C(C)(C)C)C(=O)C(=O)NC1CC1 [Compound 611] | < 100
CCC[C@H](NC(=O)[C@@H]1C[C@]2(CC(c3ccc(F)c(Cl)c3)=NO2)CN1C(=O)[C@@H](NC(=O)CC(C)(C)C)C(C)(C)C)C(=O)C(=O)NC [Compound 612] | < 100
CCC[C@H](NC(=O)[C@@H]1C[C@]2(CC(c3ccc(F)c(Cl)c3)=NO2)CN1C(=O)[C@@H](NC(=O)CC(C)(C)C)C(C)(C)C)C(=O)C(=O)NC1CC1 [Compound 613] | < 100
CCC[C@H](NC(=O)[C@@H]1C[C@]2(CC(c3cc(C)c(OC)cc3OC)=NO2)CN1C(=O)[C@@H](NC(=O)CC1CCCCC1)C(C)(C)C)C(=O)C(=O)NC1CC1 [Compound 614] | < 100
CCC[C@H](NC(=O)[C@@H]1C[C@]2(CC(c3cc(C)c(OC)cc3C)=NO2)CN1C(=O)[C@@H](NC(=O)CC1CCCCC1)C(C)(C)C)C(=O)C(=O)NC1CC1 [Compound 615] | 100 to 500
CNC(=O)C(=O)[C@H](CC1CC1)NC(=O)[C@@H]1C[C@]2(CC(c3cc(Cl)c(OC)cc3OC)=NO2)CN1C(=O)[C@@H](NC(=O)CC1CCCCCC1)C(C)(C)C [Compound 616] | < 100
CNC(=O)C(=O)[C@H](CC1CC1)NC(=O)[C@@H]1C[C@]2(CC(c3cccc(Cl)c3)=NO2)CN1C(=O)[C@@H](NC(=O)CC1CCCCC1)C1(OC)CC1 [Compound 617] | 100 to 500
CCC[C@H](NC(=O)[C@@H]1C[C@]2(CC(c3cc(Cl)c(OC)cc3OC)=NO2)CN1C(=O)[C@@H](NC(=O)CC1CCCCC1)C(C)(C)C)C(=O)C(N)=O [Compound 618] | < 100
CCC[C@H](NC(=O)[C@@H]1C[C@]2(CC(c3cccc4cccnc34)=NO2)CN1C(=O)[C@@H](NC(=O)OC(C)(C)C)C(C)(C)C)C(=O)C(=O)NC1CC1 [Compound 619] | < 100
CCC[C@H](NC(=O)[C@@H]1C[C@]2(CC(c3cc(Cl)c(OC)cc3C)=NO2)CN1C(=O)[C@@H](NC(=O)CC1CCCCC1)C(C)(C)C)C(=O)C(N)=O [Compound 620] | < 100

Compound | Ki [nM]
CCC[C@H](NC(=O)[C@@H]1C[C@]2(CC(c3ccc(F)c(Cl)c3)=NO2)CN1C(=O)[C@@H](NC(=O)CC1CCCCC1)C(C)(C)C)C(=O)C(N)=O [Compound 621] | < 100
CCC[C@H](NC(=O)[C@@H]1C[C@]2(CC(c3cc(Cl)c(OC)cc3C)=NO2)CN1C(=O)[C@@H](NC(=O)CC1CCCCCC1)C(C)(C)C)C(=O)C(N)=O [Compound 622] | 100 to 500
CCC[C@H](NC(=O)[C@@H]1C[C@]2(CC(c3ccc(F)c(Cl)c3)=NO2)CN1C(=O)[C@@H](NC(=O)CC1CCCCCC1)C(C)(C)C)C(=O)C(N)=O [Compound 623] | < 100
CCC[C@H](NC(=O)[C@@H]1C[C@]2(CC(c3cc(Cl)c(OC)cc3C)=NO2)CN1C(=O)[C@@H](NC(=O)CC(C)(C)C)C(C)(C)C)C(=O)C(N)=O [Compound 624] | 100 to 500
CCC[C@H](NC(=O)[C@@H]1C[C@]2(CC(c3ccc(F)c(Cl)c3)=NO2)CN1C(=O)[C@@H](NC(=O)CC(C)(C)C)C(C)(C)C)C(=O)C(N)=O [Compound 625] | < 100
CCC[C@H](NC(=O)[C@@H]1C[C@]2(CC(c3cc(Cl)c(OC)cc3C)=NO2)CN1C(=O)[C@@H](NC(=O)OC(C)(C)C)C(C)(C)C)C(=O)C(N)=O [Compound 626] | < 100
CCC[C@H](NC(=O)[C@@H]1C[C@]2(CC(c3ccc(F)c(Cl)c3)=NO2)CN1C(=O)[C@@H](NC(=O)OC(C)(C)C)C(C)(C)C)C(=O)C(N)=O [Compound 627] | < 100
CCC[C@H](NC(=O)[C@@H]1C[C@]2(CC(c3cc(Cl)c(OC)cc3C)=NO2)CN1C(=O)[C@@H](NC(=O)OC(C)(C)C)C(C)(C)C)C(=O)C(=O)NC1CC1 [Compound 628] | 100 to 500
CCC[C@H](NC(=O)[C@@H]1C[C@]2(CC(c3ccc(F)c(Cl)c3)=NO2)CN1C(=O)[C@@H](NC(=O)OC(C)(C)C)C(C)(C)C)C(=O)C(=O)NC1CC1 [Compound 629] | < 100
CCC[C@H](NC(=O)[C@@H]1C[C@]2(CC(c3cc(Cl)c(OC)cc3C)=NO2)CN1C(=O)[C@@H](NC(=O)OC(C)(C)C)C(C)(C)C)C(=O)C(=O)NC [Compound 630] | 100 to 500
CCC[C@H](NC(=O)[C@@H]1C[C@]2(CC(c3ccc(F)c(Cl)c3)=NO2)CN1C(=O)[C@@H](NC(=O)OC(C)(C)C)C(C)(C)C)C(=O)C(=O)NC [Compound 631] | < 100
CCC[C@H](NC(=O)[C@@H]1C[C@]2(CC(c3cc(Cl)ccc3OC)=NO2)CN1C(=O)[C@@H](NC(=O)CC1CCCCC1)C(C)(C)C)C(=O)C(=O)NC [Compound 632] | < 100
COc1ccc(Cl)cc1C1=NO[C@]2(C1)C[C@@H](C(=O)N[C@@H](CC1CC1)C(=O)C(N)=O)N(C(=O)[C@@H](NC(=O)CC1CCCCC1)C(C)(C)C)C2 [Compound 633] | < 100
CCC[C@H](NC(=O)[C@@H]1C[C@]2(CC(c3cc(Cl)ccc3OC)=NO2)CN1C(=O)[C@@H](NC(=O)CC1CCCCCC1)C(C)(C)C)C(=O)C(=O)NC [Compound 634] | < 100
COc1ccc(Cl)cc1C1=NO[C@]2(C1)C[C@@H](C(=O)N[C@@H](CC1CC1)C(=O)C(N)=O)N(C(=O)[C@@H](NC(=O)CC1CCCCCC1)C(C)(C)C)C2 [Compound 635] | < 100
CCC[C@H](NC(=O)[C@@H]1C[C@]2(CC(c3cc(Cl)ccc3OC)=NO2)CN1C(=O)[C@@H](NC(=O)CC1CCCCC1)C(C)(C)C)C(=O)C(N)=O [Compound 636] | < 100
CCC[C@H](NC(=O)[C@@H]1C[C@]2(CC(c3cc(Cl)ccc3OC)=NO2)CN1C(=O)[C@@H](NC(=O)CC1CCCCCC1)C(C)(C)C)C(=O)C(N)=O [Compound 637] | < 100
CCC[C@H](NC(=O)[C@@H]1C[C@]2(CC(c3cc(Cl)nc4ccccc34)=NO2)CN1C(=O)[C@@H](NC(=O)CC1CCCCC1)C(C)(C)C)C(=O)C(=O)NC1CC1 [Compound 638] | < 100
CCC[C@H](NC(=O)[C@@H]1C[C@]2(CC(c3cc(Cl)nc4ccccc34)=NO2)CN1C(=O)[C@@H](NC(=O)OC1CCCC1)C(C)(C)C)C(=O)C(=O)NC1CC1 [Compound 639] | < 100
CCC[C@H](NC(=O)[C@@H]1C[C@]2(CC(c3cc(C)c(OC)c(Cl)c3)=NO2)CN1C(=O)[C@@H](NC(=O)CC1CCCCC1)C(C)(C)C)C(=O)C(N)=O [Compound 640] | < 100
CCC[C@H](NC(=O)[C@@H]1C[C@]2(CC(c3cc(C)c(OC)c(Cl)c3)=NO2)CN1C(=O)[C@@H](NC(=O)CC1CCCCC1)C(C)(C)C)C(=O)C(=O)NC [Compound 641] | < 100
CNC(=O)C(=O)[C@H](CC1CC1)NC(=O)[C@@H]1C[C@]2(CC(c3cc(C)c(OC)c(Cl)c3)=NO2)CN1C(=O)[C@@H](NC(=O)CC1CCCCC1)C(C)(C)C [Compound 642] | < 100
CCC[C@H](NC(=O)[C@@H]1C[C@]2(CC(c3cc(Cl)cc(C)c3OC)=NO2)CN1C(=O)[C@@H](NC(=O)CC1CCCCC1)C(C)(C)C)C(=O)C(=O)NC1CC1 [Compound 643] | < 100
CCC[C@H](NC(=O)[C@@H]1C[C@]2(CC(c3cccc4cccnc34)=NO2)CN1C(=O)[C@@H](NC(=O)OC(C)(C)C)C(C)(C)C)C(=O)C(=O)NC [Compound 644] | 100 to 500
